PubChem BioAssay AID2060611 (Molecular Pharmacology Branch, DTP, NCI, 2025)
Values joined by “and” are separate entries in the source; they are usually repeats but may differ in a detail not shown here. Equal values may be shown once. Blank lines part the entries; values can stand above or below the compound they belong to.

Test system: 628569-122-R-J1-PDC complex spheroid viability
Test: Anticancer human tumor 628569-122-R-J1-PDC patient-derived head and neck squamous carcinoma cell line growth inhibition [CLK]
Details: for viability, T/C: stronger effect = lower value
How it was run: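 Multi-cell-type spheroids combined patient-derived tumor cells with HUVEC endothelial cells and human mesenchymal stem cells. Paired agents were dosed in half-log steps down from about clinical Cmax, or from 10 microM where Cmax was unknown.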

[1] = curve of first compound, second compound 0.0316 µM
[2] = curve of first compound, second compound 0.1 µM
[3] = curve of first compound, second compound 0.316 µM
[4] = curve of first compound, second compound 1 µM
[5] = curve of first compound, second compound 3.16 µM
[6] = curve of first compound, second compound 10 µM
[7] = second compound 0.0316 µM, first compound 0.0316 µM
[8] = second compound 0.0316 µM, first compound 0.1 µM
[9] = second compound 0.0316 µM, first compound 0.316 µM
[10] = second compound 0.0316 µM, first compound 1 µM
[11] = second compound 0.0316 µM, first compound 3.16 µM
[12] = second compound 0.0316 µM, first compound 10 µM
[13] = second compound 0.1 µM, first compound 0.0316 µM
[14] = second compound 0.1 µM, first compound 0.1 µM
[15] = second compound 0.1 µM, first compound 0.316 µM
[16] = second compound 0.1 µM, first compound 1 µM
[17] = second compound 0.1 µM, first compound 3.16 µM
[18] = second compound 0.1 µM, first compound 10 µM
[19] = second compound 0.316 µM, first compound 0.0316 µM
[20] = second compound 0.316 µM, first compound 0.1 µM
[21] = second compound 0.316 µM, first compound 0.316 µM
[22] = second compound 0.316 µM, first compound 1 µM
[23] = second compound 0.316 µM, first compound 3.16 µM
[24] = second compound 0.316 µM, first compound 10 µM
[25] = second compound 1 µM, first compound 0.0316 µM
[26] = second compound 1 µM, first compound 0.1 µM
[27] = second compound 1 µM, first compound 0.316 µM
[28] = second compound 1 µM, first compound 1 µM
[29] = second compound 1 µM, first compound 3.16 µM
[30] = second compound 1 µM, first compound 10 µM
[31] = second compound 3.16 µM, first compound 0.0316 µM
[32] = second compound 3.16 µM, first compound 0.1 µM
[33] = second compound 3.16 µM, first compound 0.316 µM
[34] = second compound 3.16 µM, first compound 1 µM
[35] = second compound 3.16 µM, first compound 3.16 µM
[36] = second compound 3.16 µM, first compound 10 µM
[37] = second compound 10 µM, first compound 0.0316 µM
[38] = second compound 10 µM, first compound 0.1 µM
[39] = second compound 10 µM, first compound 0.316 µM
[40] = second compound 10 µM, first compound 1 µM
[41] = second compound 10 µM, first compound 3.16 µM
[42] = second compound 10 µM, first compound 10 µM
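Also: spheroids exposed to agents for seven days before readout.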
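For viability, T/C in this document: 100% = DMSO vehicle control viability.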

SMILES: O=c1[nH]cc(F)c(=O)[nH]1 + CN1CCN(c2cc(C(=O)Nc3cc4cc(-c5cnn(C)c5)ccc4cn3)ccn2)CC1
IC50 [1]: > 10000 nM | IC50 [2]: > 10000 nM | IC50 [3]: < 31.6 nM | IC50 [4]: < 31.6 nM | IC50 [5]: < 31.6 nM | IC50 [6]: < 31.6 nM | viability, T/C [7]: 84.2% | viability, T/C [8]: 97.8% | viability, T/C [9]: 93.7% | viability, T/C [10]: 102% | viability, T/C [11]: 88.8% | viability, T/C [12]: 69.3% | viability, T/C [13]: 64.1% | viability, T/C [14]: 69.9% | viability, T/C [15]: 70.5% | viability, T/C [16]: 71.6% | viability, T/C [17]: 64.8% | viability, T/C [18]: 54.7% | viability, T/C [19]: 35.7% | viability, T/C [20]: 30.7% | viability, T/C [21]: 37.5% | viability, T/C [22]: 44.7% | viability, T/C [23]: 38.3% | viability, T/C [24]: 29.8% | viability, T/C [25]: 12.8% | viability, T/C [26]: 6.16% | viability, T/C [27]: 6.71% | viability, T/C [28]: 8.95% | viability, T/C [29]: 7.13% | viability, T/C [30]: 5.19% | viability, T/C [31]: 9.61% | viability, T/C [32]: 7.33% | viability, T/C [33]: 9.99% | viability, T/C [34]: 8.76% | viability, T/C [35]: 12% | viability, T/C [36]: 4.06% | viability, T/C [37]: 11% | viability, T/C [38]: 2.54% | viability, T/C [39]: 4.42% | viability, T/C [40]: 2.63% | viability, T/C [41]: 2.63% | viability, T/C [42]: 3.59%

SMILES: C=CC(=O)Nc1cc(Nc2nccc(-c3cn(C)c4ccccc34)n2)c(OC)cc1N(C)CCN(C)C + CN1CCN(c2cc(C(=O)Nc3cc4cc(-c5cnn(C)c5)ccc4cn3)ccn2)CC1
IC50 [1]: > 300 nM | IC50 [2]: 102 nM | IC50 [3]: < 0.949 nM | IC50 [4]: < 0.949 nM | IC50 [5]: < 0.949 nM | IC50 [6]: < 0.949 nM | viability, T/C (second compound 0.0316 µM, first compound 0.000949 µM): 98.5% | viability, T/C (second compound 0.0316 µM, first compound 0.003 µM): 112% | viability, T/C (second compound 0.0316 µM, first compound 0.00949 µM): 94.6% | viability, T/C (second compound 0.0316 µM, first compound 0.03 µM): 89.1% | viability, T/C (second compound 0.0316 µM, first compound 0.0949 µM): 98.4% | viability, T/C (second compound 0.0316 µM, first compound 0.3 µM): 59.1% | viability, T/C (second compound 0.1 µM, first compound 0.000949 µM): 56.9% | viability, T/C (second compound 0.1 µM, first compound 0.003 µM): 68.1% | viability, T/C (second compound 0.1 µM, first compound 0.00949 µM): 70.1% | viability, T/C (second compound 0.1 µM, first compound 0.03 µM): 57% | viability, T/C (second compound 0.1 µM, first compound 0.0949 µM): 52.9% | viability, T/C (second compound 0.1 µM, first compound 0.3 µM): 19.4% | viability, T/C (second compound 0.316 µM, first compound 0.000949 µM): 35.5% | viability, T/C (second compound 0.316 µM, first compound 0.003 µM): 44.2% | viability, T/C (second compound 0.316 µM, first compound 0.00949 µM): 38.6% | viability, T/C (second compound 0.316 µM, first compound 0.03 µM): 39% | viability, T/C (second compound 0.316 µM, first compound 0.0949 µM): 32.9% | viability, T/C (second compound 0.316 µM, first compound 0.3 µM): 14.3% | viability, T/C (second compound 1 µM, first compound 0.000949 µM): 5.92% | viability, T/C (second compound 1 µM, first compound 0.003 µM): 6.94% | viability, T/C (second compound 1 µM, first compound 0.00949 µM): 10.9% | viability, T/C (second compound 1 µM, first compound 0.03 µM): 5.22% | viability, T/C (second compound 1 µM, first compound 0.0949 µM): 7.08% | viability, T/C (second compound 1 µM, first compound 0.3 µM): 5.76% | viability, T/C (second compound 3.16 µM, first compound 0.000949 µM): 5.99% | viability, T/C (second compound 3.16 µM, first compound 0.003 µM): 7.83% | viability, T/C (second compound 3.16 µM, first compound 0.00949 µM): 7.06% | viability, T/C (second compound 3.16 µM, first compound 0.03 µM): 9.16% | viability, T/C (second compound 3.16 µM, first compound 0.0949 µM): 6.05% | viability, T/C (second compound 3.16 µM, first compound 0.3 µM): 4.8% | viability, T/C (second compound 10 µM, first compound 0.000949 µM): 2.23% | viability, T/C (second compound 10 µM, first compound 0.003 µM): 2.23% | viability, T/C (second compound 10 µM, first compound 0.00949 µM): 4.31% | viability, T/C (second compound 10 µM, first compound 0.03 µM): 2.44% | viability, T/C (second compound 10 µM, first compound 0.0949 µM): 2.36% | viability, T/C (second compound 10 µM, first compound 0.3 µM): 4.04%

SMILES: CCCS(=O)(=O)Nc1ccc(F)c(C(=O)c2c[nH]c3ncc(-c4ccc(Cl)cc4)cc23)c1F + CN1CCN(c2cc(C(=O)Nc3cc4cc(-c5cnn(C)c5)ccc4cn3)ccn2)CC1
IC50 [1]: > 10000 nM | IC50 [2]: > 10000 nM | IC50 [3]: < 31.6 nM | IC50 [4]: < 31.6 nM | IC50 [5]: < 31.6 nM | IC50 [6]: < 31.6 nM | viability, T/C [7]: 121% | viability, T/C [8]: 94.7% | viability, T/C [9]: 87.2% | viability, T/C [10]: 87.9% | viability, T/C [11]: 91.7% | viability, T/C [12]: 104% | viability, T/C [13]: 70.8% | viability, T/C [14]: 72.7% | viability, T/C [15]: 68.9% | viability, T/C [16]: 80.9% | viability, T/C [17]: 86.6% | viability, T/C [18]: 93.5% | viability, T/C [19]: 37.9% | viability, T/C [20]: 36.1% | viability, T/C [21]: 37.9% | viability, T/C [22]: 46.5% | viability, T/C [23]: 46.4% | viability, T/C [24]: 44.5% | viability, T/C [25]: 5.76% | viability, T/C [26]: 9.94% | viability, T/C [27]: 5.5% | viability, T/C [28]: 5.99% | viability, T/C [29]: 5.05% | viability, T/C [30]: 5.13% | viability, T/C [31]: 5.86% | viability, T/C [32]: 6.15% | viability, T/C [33]: 6.62% | viability, T/C [34]: 4.48% | viability, T/C [35]: 5.63% | viability, T/C [36]: 8.05% | viability, T/C [37]: 5.01% | viability, T/C [38]: 2.99% | viability, T/C [39]: 2.11% | viability, T/C [40]: 1.75% | viability, T/C [41]: 1.53% | viability, T/C [42]: 1.67%

IC50 [1]: > 10000 nM | IC50 [2]: > 10000 nM | IC50 [3]: 1350 nM | IC50 [4]: < 31.6 nM | IC50 [5]: < 31.6 nM | IC50 [6]: < 31.6 nM
SMILES: C#Cc1c(F)ccc2cc(O)cc(-c3ncc4c(N5CC6CCC(C5)N6)nc(OCC56CCCN5CC(F)C6)nc4c3F)c12 (stereo unspecified) + CNC(=O)c1ccc(Nc2nc(OC3CCCC3)c3c(-c4ccc5nc(C)oc5c4)c[nH]c3n2)c(OC)c1
viability, T/C [7]: 103% | viability, T/C [8]: 94.2% | viability, T/C [9]: 84.8% | viability, T/C [10]: 100% | viability, T/C [11]: 98.7% | viability, T/C [12]: 98.8% | viability, T/C [13]: 71.2% | viability, T/C [14]: 63.2% | viability, T/C [15]: 51.5% | viability, T/C [16]: 53.5% | viability, T/C [17]: 61.7% | viability, T/C [18]: 59.3% | viability, T/C [19]: 55.8% | viability, T/C [20]: 52.9% | viability, T/C [21]: 50.2% | viability, T/C [22]: 53.4% | viability, T/C [23]: 47.5% | viability, T/C [24]: 44.1% | viability, T/C [25]: 46% | viability, T/C [26]: 45.6% | viability, T/C [27]: 47.4% | viability, T/C [28]: 50.9% | viability, T/C [29]: 44.9% | viability, T/C [30]: 52.3% | viability, T/C [31]: 51.6% | viability, T/C [32]: 43.1% | viability, T/C [33]: 47.5% | viability, T/C [34]: 39.2% | viability, T/C [35]: 40.3% | viability, T/C [36]: 28.5% | viability, T/C [37]: 49.4% | viability, T/C [38]: 42.4% | viability, T/C [39]: 41.9% | viability, T/C [40]: 41.4% | viability, T/C [41]: 47.5% | viability, T/C [42]: 29.7%

IC50 (curve of compound): 1930 nM and 1080 nM
SMILES: CC1COCCN1c1cc(C2(S(C)(=N)=O)CC2)nc(-c2ccnc3[nH]ccc23)n1 (stereo unspecified)
viability, T/C (compound 0.0316 µM): 106% and 94.9% | viability, T/C (compound 0.1 µM): 89.1% and 89.6% | viability, T/C (compound 0.316 µM): 102% and 68.9% | viability, T/C (compound 1 µM): 65.9% and 50.8% | viability, T/C (compound 3.16 µM): 42.5% and 40.7% | viability, T/C (compound 10 µM): 33.7% and 33.3%

SMILES: CNC(=O)c1ccc(Nc2nc(OC3CCCC3)c3c(-c4ccc5nc(C)oc5c4)c[nH]c3n2)c(OC)c1
viability, T/C (compound 0.0316 µM): 95.7% [middle of 12 runs] | viability, T/C (compound 0.1 µM): 60.6% [middle of 12 runs] | viability, T/C (compound 0.316 µM): 54.9% [middle of 12 runs] | viability, T/C (compound 1 µM): 44.6% [middle of 12 runs] | viability, T/C (compound 3.16 µM): 40.7% [middle of 12 runs] | viability, T/C (compound 10 µM): 41.4% [middle of 12 runs]
